Experiments:
[1] = 101.33 kPa, Liquid, Pulse-echo method
[2] = xn = mol fraction of the nth substance listed; conditions: 101 kPa, Liquid, Pulse-echo method

[Cl-].[Li+] [lithium chloride]
[1]
Conditions	speed of sound [m/s]
950 K	1988
976 K	1973
1003 K	1945
1030 K	1924
1062 K	1894
1082 K	1879
1110 K	1858
1148 K	1825
1181 K	1791

[Cl][Nd]([Cl])[Cl] [neodymium(III) chloride]
[1]
Conditions	speed of sound [m/s]
1044 K	1248
1045 K	1259
1075 K	1237
1083 K	1227
1099 K	1227
1148 K	1223
1165 K	1212
1184 K	1188
1218 K	1190

[Cl][Nd]([Cl])[Cl] [neodymium(III) chloride] + [Cl-].[Cs+]
[2]
Conditions	speed of sound [m/s]
913 K, x1 = 0.45	1110
968 K, x1 = 0.45	1080
998 K, x1 = 0.8	1205
1008 K, x1 = 0.45	1053
1043 K, x1 = 0.8	1172
1061 K, x1 = 0.45	1026
1083 K, x1 = 0.8	1148
1112 K, x1 = 0.45	998
1123 K, x1 = 0.8	1129
1138 K, x1 = 0.45	980
1143 K, x1 = 0.8	1115
1147 K, x1 = 0.25	969
1169 K, x1 = 0.25	961
1188 K, x1 = 0.25	953
1207 K, x1 = 0.25	949
1226 K, x1 = 0.25	941
1245 K, x1 = 0.25	934

[Cl][Nd]([Cl])[Cl] [neodymium(III) chloride] + [Cl-].[K+]
[2]
Conditions	speed of sound [m/s]
1007 K, x1 = 0.75	1275
1037 K, x1 = 0.75	1259
1053 K, x1 = 0.37	1283
1058 K, x1 = 0.25	1370
1063 K, x1 = 0.5	1259
1067 K, x1 = 0.75	1240
1076 K, x1 = 0.25	1355
1080 K, x1 = 0.37	1260
1088 K, x1 = 0.5	1240
1096 K, x1 = 0.25	1340
1110 K, x1 = 0.37	1250
1110 K, x1 = 0.75	1225
1118 K, x1 = 0.25	1315
1124 K, x1 = 0.5	1230
1128 K, x1 = 0.37	1241
1139 K, x1 = 0.75	1210
1145 K, x1 = 0.37	1223
1146 K, x1 = 0.25	1300
1150 K, x1 = 0.5	1214
1163 K, x1 = 0.75	1197
1173 K, x1 = 0.37	1212
1176 K, x1 = 0.25	1256
1178 K, x1 = 0.37	1200
1185 K, x1 = 0.5	1190
1186 K, x1 = 0.25	1260
1203 K, x1 = 0.5	1186
1213 K, x1 = 0.25	1234

[Cl][Nd]([Cl])[Cl] [neodymium(III) chloride] + [Cl-].[Li+]
[2], x1 = 0.5
Conditions	speed of sound [m/s]
995 K	1395
1033 K	1374
1108 K	1350
1133 K	1331
1167 K	1326

[Cl][Nd]([Cl])[Cl] [neodymium(III) chloride] + [Cl-].[Na+]
[2]
Conditions	speed of sound [m/s]
1009 K, x1 = 0.365	1450
1048 K, x1 = 0.365	1418
1053 K, x1 = 0.2	1520
1063 K, x1 = 0.75	1290
1073 K, x1 = 0.2	1502
1073 K, x1 = 0.75	1285
1074 K, x1 = 0.365	1389
1090 K, x1 = 0.44	1350
1100 K, x1 = 0.365	1368
1103 K, x1 = 0.2	1465
1103 K, x1 = 0.44	1340
1103 K, x1 = 0.75	1270
1115 K, x1 = 0.44	1325
1123 K, x1 = 0.44	1330
1127 K, x1 = 0.2	1476
1128 K, x1 = 0.365	1354
1133 K, x1 = 0.44	1325
1133 K, x1 = 0.75	1256
1143 K, x1 = 0.2	1447
1143 K, x1 = 0.44	1322
1150 K, x1 = 0.44	1307
1154 K, x1 = 0.75	1250
1155 K, x1 = 0.365	1357
1173 K, x1 = 0.2	1420
1175 K, x1 = 0.365	1340
1176 K, x1 = 0.75	1240
